Consider 13 compounds from patent US10421769B2, “Anticancer property studies of chiral palladium N-heterocyclic carbene complexes and process for preparation thereof” (Indian Institute of Technology Bombay, priority 2017, dated 2019).

Read-outs that look alike come from different tables or passages of the source. Where only a bound is given, the exact number is not on record here.

Experiment [1] deals with MCF-7 cells. Nature of the experiment: Sulforhodamine B assay, proliferation of MCF-7 cells. The note with it: MCF-7 breast cancer cells, one cell cycle (48 h), SRB. The format is cell-based, human. How it is done:
(§1) The present invention further provides a Sulforhodamine B assay method for investigating the anti-cancer efficacies of the compounds of the present Pd—NHC series on MCF-7, HeLa, A549, B16-F10 and EMT6/AR1 cancer cell lines and also for a comparative study on normal skin cell line L929 and normal epithelial breast cells MCF10A. The said Sulforhodamine B assay is conducted as per reported method (Skehan et al., J. Natl. Cancer Inst. 1990, 82, 1107).
(§2) Experiment: The anti-proliferative activity of the present palladium N-heterocyclic carbene complexes on two different cancer cell lines MCF-7 and HeLa is tested using Sulforhodamine B assay to reveal their anti-tumor properties. The evaluation of growth inhibition of these complexes is done from their IC50 values for the inhibition of cell growth. The IC50 values are compared with Cisplatin to determine any increase in efficacy.
Method: The effects of present series of palladium N-heterocyclic carbene complexes, such as compounds (1S,2S,5R)-(1-3)b and (1R,2R,5S)-(1-3)b; (1S,2S,5R)-(1, 3)c and (1R,2R,5S)-(1, 3)c on the proliferation of MCF-7 cells after one cell cycle are determined by Sulforhodamine B assay. In particular, 1×10^5 cells/mL are seeded in each well in 96-well plates for 24 h and then incubated without or with different concentrations of these complexes at 37° C. for one cell cycle (48 h). After incubation of cells with the complexes for one cell cycle, cell growth is stopped by the addition of 50% trichloroacetic acid and stained with 0.4% sulforhodamine B dissolved in 1% acetic acid. Unbound dye is removed by washing with 1% acetic acid, and the protein content is determined by measuring absorbance at 520 nm in a Bio-Rad model 680 microplate reader after extracting with 10 mM tris base. IC50 value is calculated as the concentration of the complex that inhibited the proliferation of cells by 50% relative to the untreated control cells. The anticancer activities of the present Pd—NHC compounds are graphically represented in accompanying FIG. 1.
(§3) The data obtained is graphically represented in accompanying FIG. 2.

In experiment [2] the test system is HeLa cells. The experiment in a line: Sulforhodamine B assay, proliferation of HeLa cells. The format is cell-based, human. To be noted: HeLa cervical cancer cells, 24 h, SRB. How it is done: as §1, §2
The seeded cells in 96-well plates are incubated with the complex for 24 h and the assay is performed.
as §3

Another experiment has as its system HCT 116 cell lines. To be noted: HCT 116, MTT, 72 hours, Haque et al. Metallomics 2013; read-out: HCT-116 (IC50 value), prior art (b); cited from earlier work.
In experiment [3] the test system is intracellular ROS in MCF-7 cells. Nature of the experiment: Reactive oxygen species (ROS) assay using H2DCFDA, flow cytometry. The note with it: MCF-7, 30 μM, 24 h, positive control. It counts as cell-based, human. The protocol:
Experiment: Reactive oxygen species (ROS) production in cells when treated with (1R,2R,5S)-1c, was estimated by ROS assay using 2′,7′-dichlorodihydrofluorescein diacetate (H2DCFDA). MCF-7 cells (5 mL) were seeded in 60 mm cell culture dishes at a density of 1.5×10^5 cells/mL. After cell attachment, they were incubated with 4 and 8 μM (1R,2R,5S)-1c for 24 h. Cells treated with 30 μM hydrogen peroxide was used as a positive control. Following 24 h of incubation, the cells were processed and analyzed using flow cytometry. The percentage of DCFH-DA positive MCF-7 cells in the absence and presence 4 and 8 μM (1R,2R,5S)-1c was determined by flow cytometry. 30 μM H2O2 was used as a positive control. Data are average of three independent set of experiments and ±indicates S.D.

The subject of experiment [4] is MCF-7 cells. The note with it: MCF-7, one cell cycle, SRB, Ghosh et al. JACS 2007; read-out: MCF-7 (IC50 value), prior art (a); cited from earlier work.
In another experiment the test system is HCT 116 cells. To be noted: HCT 116, one cell cycle, SRB, Ghosh et al. JACS 2007; read-out: HCT-116 (IC50 value), prior art (a); cited from earlier work.
In experiment [5] the test system is HeLa cells. The note with it: one cell cycle, SRB, Ghosh et al. JACS 2007, read-out: HeLa (IC50 value), prior art (a); cited from earlier work.
Experiment [6] concerns MCF-7 cells. Nature of the experiment: Live dead assay by flow cytometry using propidium iodide. The format is cell-based, human. The note with it: MCF-7, 4 μM, 48 h. The protocol:
MCF-7 cells (5 mL) were seeded in 60 mm cell culture dishes at a density of 1.5×10^5 cells/mL. Cells were incubated with 4 and 8 μM (1R,2R,5S)-1c for 48 h for live dead assay. After the required incubation, cells were processed and analyzed by flow cytometry. Percentage of live and dead MCF-7 cells in the absence and presence of 4 and 8 μM (1R,2R,5S)-1c and 4 μM cisplatin was determined by flow cytometry using propidium iodide (PI).

Consider “trans-[1-(1S)-menthyl-4-(ethyl)-1,2,4-triazol-5-ylidene]2PdBr2 [(1S,2S,5R)-1b]”, for which, in the experiment with MCF-7 cells [1] (read-out: IC50 (μM), MCF-7), the IC50 came to 2.2 ± 0.1 µM.
Consider “trans-[1-(1S)-menthyl-4-(ethyl)-1,2,4-triazol-5-ylidene]2Pd(OCOCF3)2 [(1S,2S,5R)-1c]”, for which the IC50 was 0.7 ± 0.005 µM with MCF-7 cells [1] (read-out: IC50 (μM), MCF-7); 0.7 ± 0.005 µM in the experiment on MCF-7 cells [1] (unit nM printed in cell or sentence, read-out: IC50, MCF-7 (values given in nM)); 2.6 ± 1.6 µM in the experiment with HeLa cells [2] (listed as drawing 40); 2.6 ± 1.6 µM in the experiment on HeLa cells [2] (listed as drawing 47).
As to “trans-[1-(1R)-menthyl-4-(benzyl)-1,2,4-triazol-5-ylidene]2PdBr2 [(1R,2R,5S)-3b]”, the IC50 in the experiment with MCF-7 cells [1] (read-out: IC50 (μM), MCF-7) is over 10 µM.
Take “trans-[1-(1R)-menthyl-4-(benzyl)-1,2,4-triazol-5-ylidene]2Pd(OCOCF3)2 [(1R,2R,5S)-3c]”: the IC50 with MCF-7 cells [1] (read-out: IC50 (μM), MCF-7) is over 10 µM.
The same measure, in the same setting: to “trans-[1-(1R)-menthyl-4-(ethyl)-1,2,4-triazol-5-ylidene]2PdBr2 [(1R,2R,5S)-1b]” belongs 2.3 ± 1 µM.
For `CCCCN1C=CN(Cc2ccccc2)[CH]1[Pd]([Cl])([Cl])[CH]1N(CCCC)C=CN1Cc1ccccc1` (stereo not shown) [Compound 9], in the experiment with HCT 116 cell lines, the concentration for half-maximal inhibition (IC50) was 6.6 µM.
On to “trans-[1-(1S)-menthyl-4-(benzyl)-1,2,4-triazol-5-ylidene]2Pd(OCOCF3)2 [(1S,2S,5R)-3c]”, for which, in the experiment with MCF-7 cells [1] (read-out: IC50 (μM), MCF-7), the IC50 was over 10 µM.
For “trans-[1-(1S)-menthyl-4-(benzyl)-1,2,4-triazol-5-ylidene]2PdBr2 [(1S,2S,5R)-3b]”, in the experiment on MCF-7 cells [1] (read-out: IC50 (μM), MCF-7), the IC50 was over 10 µM.
“trans-[1-(1S)-menthyl-4-(allyl)-1,2,4-triazol-5-ylidene]2PdBr2 [(1S,2S,5R)-2b]”: the IC50 in the experiment on MCF-7 cells [1] (read-out: IC50 (μM), MCF-7) is about 10 µM.
Take `OO` [Compound H2O2, hydrogen peroxide, reference compound]: the “% of DCFH-DA positive cells” value in experiment [3] is given as 72 ± 4%.
Turning to `C=CCN1C=CN(CCCC)[CH]1[Pd]([Cl])([Cl])[CH]1N(CC=C)C=CN1CCCC` (stereo not shown) [Compound 8], in the experiment on HCT 116 cell lines, the half-maximal inhibitory concentration (IC50) was 26.5 µM.
For `N.N.[Cl][Pt][Cl]` [cisplatin, cis-diammine-dichloroplatinum (II), reference compound], the IC50 was 15 µM in the experiment with MCF-7 cells [4]; 14.9 ± 0.4 µM in the experiment with MCF-7 cells [1] (read-out: IC50 (μM), MCF-7); 16 µM with HCT 116 cells; 8 µM in the experiment with HeLa cells [5]; 8.5 ± 0.7 µM with HeLa cells [2]. Also, the Dead % with MCF-7 cells [6] amounted to 8 ± 2%. In the experiment on MCF-7 cells [6], this compound gave a Live % of 93 ± 4%.
Regarding “trans-[1-(1R)-menthyl-4-(allyl)-1,2,4-triazol-5-ylidene]2PdBr2 [(1R,2R,5S)-2b]”, the 50% inhibitory concentration (IC50) with MCF-7 cells [1] (read-out: IC50 (μM), MCF-7) is about 10 µM.
